Measurements as given in patent publication EP2977042B1, “OLOPATADINE FORMULATIONS FOR TOPICAL NASAL ADMINISTRATION” (Novartis AG, priority 2007, dated 2008).
Where a name gives a salt, the structure may show the parent alone.

Key:
Assay type in all cases: physicochemical
[1] = Dissolution rate of olopatadine hydrochloride in a nasal formulation containing 0.01% EDTA and 0.01% BAC, effect of NaCl and Na2HPO4 concentrations
Description: The effect of NaCl and Na2HPO4 concentrations on the dissolution rate of olopatadine hydrochloride in a nasal formulation containing 0.01% EDTA and 0.01% BAC was determined. The aqueous solubility of olopatadine HCl decreases with increasing concentration of NaCl. However, increasing phosphate buffer correlates with increased aqueous solubility of olopatadine HCl in the presence of NaCl.

[2] = Visual observation of composition clarity during compounding
Description: An exemplary compounding procedure for the nasal composition shown in Table 1 is described as below. • 1. Tare a suitable compounding vessel with magnetic stir bar. Add approximately 80% of the batch weight of purified water. • 2. While stirring, add dibasic sodium phosphate (anhydrous), sodium chloride, edetate disodium, benzalkonium chloride and olopatadine HCl. • 3. Add equivalent to approximately 0.55 g, 6N hydrochloric acid per 100 ml batch. • 4. Allow adequate time between each addition for dissolution of each ingredient • 5. Add purified water to approximately 90% of final batch weight. • 6. Measure pH and adjust, if necessary, to 3.7 with 6N (and/or 1N) hydrochloric acid and 1N sodium hydroxide. • 7. Adjust to final batch weight with purified water (QS). • 8. Measure final pH. • 9. Filter through 0.2 µm filtration membrane. The two compositions shown in Table 2 below were prepared using the procedure described in Example 1 and visual observations of the compositions clarity were made at different points during the compounding procedure. […] In each case, visual observations relating to the composition's clarity were recorded. […] Visual observations of the clarity of each composition were recorded as each composition was prepared.

[3] = Acid-base equilibrium (pKa values) of olopatadine
From the text: Olopatadine has both a carboxylic functional group (pKa1 = 4.18) and a tertiary amino group (pKa2 = 9.79). It exists in different ionic forms depending upon the pH of the solution. Olopatadine exists predominantly as a zwitterion in the pH range between the two pKa values with a negatively-charged carboxylic group and a positively-charged tertiary amino group. The isoelectric point of the olopatadine zwitterion is at pH 6.99. At a pH lower than pKa1, cationic olopatadine (with ionized tertiary amino group) is dominant. At a pH higher than pKa2, anionic olopatadine (with ionized carboxylic group) is dominant.

[4] = Dissolution rate of olopatadine hydrochloride in water, effect of NaCl and Na2HPO4
Description: The effect of NaCl on the dissolution rate of olopatadine hydrochloride in water was determined.

aqueous solubility ([1]; with increasing concentration of NaCl)	aqueous solubility ([1]; with increasing phosphate buffer, in the presence of NaCl)	solubility of 0.665% olopatadine hydrochloride in the tested nasal vehicle ([2]; without a phosphate salt)	dissolution of 0.665% olopatadine hydrochloride in water ([2]; without phosphate buffer, in the presence of 0.7% NaCl, pH as low as 3.6, compounding procedure of Example 1)	pKa1 ([3]; carboxylic functional group)	isoelectric point of the olopatadine zwitterion ([3]; given as pH)	pKa2 ([3]; tertiary amino group)	effect of NaCl on the rate of dissolution ([4]; in water)	effect of addition of Na2HPO4 on dissolution ([4]; in water with NaCl)	time for complete dissolution of 0.6% olopatadine solution ([4]; in water with NaCl, with Na2HPO4)	time for complete dissolution of 0.6% olopatadine solution ([4]; in water with NaCl, without Na2HPO4, assuming the entire amount would eventually dissolve)	Compound
decreases	increased	not soluble	did not completely dissolve								CN(C)CC/C=C1/c2ccccc2COc2ccc(CC(=O)O)cc21 [olopatadine HCl, (Z)-11-(3-dimethylaminopropylidene)-6,11-dihydro-dibenz-[b,e]oxepin-2-acetic acid]
				4.18	6.99	9.79	significant reduction	dramatically improved	less than one	at least several hours	CN(C)CC/C=C1/c2ccccc2COc2ccc(CC(=O)O)cc21 [olopatadine, Z-11-(3-dimethylaminopropylidene)-6, 11-dihydrodibenz[b,e]oxepine-2-acetic acid]
